# Reference: ChEMBL document CHEMBL1150853, “A new dehydrogeranylgeraniol antioxidant from Saururus cernuus that inhibits intracellular reactive oxygen species (ROS)-catalyzed oxidation within HL-60 cells” (J Nat Prod, 2001)
# Activity calls are given as the source filed them. The rule behind the calls is not given here.
# What was measured:
# HL-60 [1] = assay: Antioxidant activity in human HL60 cells assessed as inhibition of endogenous hydrogen peroxide-catalyzed oxidation of 2',7'-dichlorodihydrofluorescein diacetate at 5 ug/mL by flow cytometry; assay type: functional
# Colletotrichum acutatum = assay: Antifungal activity against Colletotrichum acutatum at 100 nmol by 2D-TLC bioautography assay; assay type: functional, organism-based
# [2] = system: Radical scavenging activity; assay: Antioxidant activity assessed as DPPH radical scavenging activity after 30 mins by modified 2D TLC autographic assay; assay type: functional
# [3] = system: Colletotrichum gloeosporioides; assay: Antifungal activity against Colletotrichum gloeosporioides at 100 nmol by 2D-TLC bioautography assay; assay type: functional, organism-based
# HL-60 [4] = assay: Cytotoxicity against human HL60 cells at 5 ug/mL after 4 hrs by XTT assay; assay type: cell-based; settings: hl-60, 4 h
# Colletotrichum fragariae = assay: Antifungal activity against Colletotrichum fragariae at 100 nmol by 2D-TLC bioautography assay; assay type: functional, organism-based
# HL-60 [5] = assay: Antioxidant activity in phorbol 12-myristate 13-acetate-stimulated human HL60 cells assessed as inhibition of exogenous hydrogen peroxide-catalyzed oxidation of 2',7'-dichlorodihydrofluorescein diacetate at 5 ug/mL pretreated 30 mins before PMA challenge by flow cytometry; assay type: functional
# HL-60 [6] = assay: Antioxidant activity in human HL60 cells assessed as inhibition of endogenous hydrogen peroxide-catalyzed oxidation of 2',7'-dichlorodihydrofluorescein diacetate at 50 ug/mL by flow cytometry; assay type: functional, cell-based
# HL-60 [7] = assay: Antioxidant activity in phorbol 12-myristate 13-acetate-stimulated human HL60 cells assessed as inhibition of exogenous hydrogen peroxide-catalyzed oxidation of 2',7'-dichlorodihydrofluorescein diacetate at 50 ug/mL pretreated 30 mins before PMA challenge by flow cytometry; assay type: functional, cell-based
Compound,inhibition at 5 µg/mL (HL-60 [1]) [%],Activity (Colletotrichum acutatum),Activity [2],Activity [3],Activity (HL-60 [4]),Activity (Colletotrichum fragariae),inhibition at 5 µg/mL (HL-60 [5]) [%],inhibition (HL-60 [6]),inhibition (HL-60 [7]) [%]
CC(C)=C/C=C/C(C)=C/CC/C(C)=C/CC/C(C)=C/CO,8,Active,Active,Active,Non-toxic,Active,28,–,–
VITAMIN E,–,–,–,–,–,–,–,inactive,32.4
